The assay concerns the target T1, wild-type AR (Homo sapiens, UniProt P10275).
T1 sequence (P10275 1-920): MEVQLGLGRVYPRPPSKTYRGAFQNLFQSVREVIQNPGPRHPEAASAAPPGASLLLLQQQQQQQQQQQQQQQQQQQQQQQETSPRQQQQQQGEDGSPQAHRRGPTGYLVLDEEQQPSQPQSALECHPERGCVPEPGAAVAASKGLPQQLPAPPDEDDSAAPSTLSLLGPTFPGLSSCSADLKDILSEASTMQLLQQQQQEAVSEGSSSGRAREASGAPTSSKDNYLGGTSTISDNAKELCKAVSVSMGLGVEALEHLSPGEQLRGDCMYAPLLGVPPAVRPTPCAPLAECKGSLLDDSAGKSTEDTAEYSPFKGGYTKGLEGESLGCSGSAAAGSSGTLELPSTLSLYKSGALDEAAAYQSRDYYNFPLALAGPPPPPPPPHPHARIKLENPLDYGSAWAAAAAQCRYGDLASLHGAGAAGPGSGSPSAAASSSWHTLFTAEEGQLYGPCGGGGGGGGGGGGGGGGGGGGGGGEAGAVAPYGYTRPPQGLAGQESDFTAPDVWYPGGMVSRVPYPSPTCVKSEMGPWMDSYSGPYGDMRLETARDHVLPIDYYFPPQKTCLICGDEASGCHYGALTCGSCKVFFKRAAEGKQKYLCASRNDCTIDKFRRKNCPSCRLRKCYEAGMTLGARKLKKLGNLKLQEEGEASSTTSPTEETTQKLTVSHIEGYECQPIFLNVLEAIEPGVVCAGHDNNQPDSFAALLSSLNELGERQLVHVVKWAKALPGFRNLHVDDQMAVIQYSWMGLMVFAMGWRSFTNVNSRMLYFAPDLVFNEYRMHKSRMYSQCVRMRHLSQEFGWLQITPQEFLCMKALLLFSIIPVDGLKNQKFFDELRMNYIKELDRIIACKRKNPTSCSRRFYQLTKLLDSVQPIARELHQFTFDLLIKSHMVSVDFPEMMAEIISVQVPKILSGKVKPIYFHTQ
The assay is described as follows: Competitive inhibition of [3H]R1881 binding, wild-type AR.

Molecules are shown by their SMILES.

Consider `C[C@]12CC[C@H](O)CC1=CC[C@@H]1[C@@H]2CC[C@]2(C)C(c3cccnc3)=CC[C@@H]12` [Abiraterone], for which, for the setting “competitive binding, up to 10 μM”, the “binding to the AR” value is reported as “did not bind”. Also, for the setting “read-out: wild-type (LAPC4/PC3-AR), inhibition of [3H]R1881 binding as symbol”, the inhibition at 10 µM is less than 20%.

Values taken from article PMC2643345 (Molecular cancer therapeutics, 2008).
